Counter-ions that a name gives are not always drawn.
Columns and labels:
NUGC-3 = experiment: Cytotoxicity against human NUGC-3 cells assessed as cell growth inhibition incubated for 48 hrs by SRB method; assay type: functional, cell-based; details: NUGC-3, 48 h
ACHN = experiment: Cytotoxicity against human ACHN cells assessed as cell growth inhibition incubated for 48 hrs by SRB method; assay type: functional, cell-based
MDA-MB-231 = experiment: Cytotoxicity against human MDA-MB-231 cells assessed as cell growth inhibition incubated for 48 hrs by SRB method; assay type: functional, cell-based; details: MDA-MB-231, 48 h
PC-3 = experiment: Cytotoxicity against human PC-3 cells assessed as cell growth inhibition incubated for 48 hrs by SRB method; assay type: functional, cell-based; details: PC-3, 48 h
HCT-15 = experiment: Cytotoxicity against human HCT-15 cells assessed as cell growth inhibition incubated for 48 hrs by SRB method; assay type: functional, cell-based; details: HCT-15, 48 h
NCI-H23 = experiment: Cytotoxicity against human NCI-H23 cells assessed as cell growth inhibition incubated for 48 hrs by SRB method; assay type: functional, cell-based; details: NCI-H23, 48 h
BV-2 [1] = experiment: Anti-neuroinflammatory activity in mouse BV-2 cells assessed as inhibition of LPS-induced NO production pretreated for 1 hr followed by LPS addition measured after 24 hrs by Griess reagent based assay; assay type: functional, cell-based
BV-2 [2] = experiment: Cytotoxicity against LPS induced mouse BV-2 cells assessed as reduction in cell viability at >1 uM pretreated for 1 hr followed by LPS addition measured after 24 hrs by MTT assay; assay type: toxicity, cell-based; details: bv-2, 25 h

Compound | IC50 (NUGC-3) | IC50 (ACHN) | IC50 (MDA-MB-231) | IC50 (PC-3) | IC50 (HCT-15) | IC50 (NCI-H23) | IC50 (BV-2 [1]) | Activity (BV-2 [2])
C[C@@H](O)c1cccc2nc3c(C(=O)O)cccc3nc12 | > 10 µM | > 10 µM | > 10 µM | > 10 µM | > 10 µM | > 10 µM | 16 µM | –
C[C@H](c1cccc2nc3c(C(=O)O)cccc3nc12)c1ccc(C(=O)O)c2nc3cccc([C@@H](C)O)c3nc12 | > 10 µM | > 10 µM | > 10 µM | > 10 µM | > 10 µM | > 10 µM | 170 µM | –
CC(=O)c1cccc2nc3c(C(=O)O[C@H](C)c4cccc5nc6c(C(=O)O)cccc6nc45)cccc3nc12 | 0.035 µM | 0.072 µM | 0.052 µM | 0.047 µM | 0.06 µM | 0.043 µM | – | –
C[C@@H](c1cccc2nc3c(C(=O)O)cccc3nc12)c1ccc(C(=O)O)c2nc3cccc([C@@H](C)O)c3nc12 | > 10 µM | > 10 µM | > 10 µM | > 10 µM | > 10 µM | > 10 µM | 90 µM | –
CC(=O)c1cccc2nc3c(C(=O)O)ccc([C@H](C)c4cccc5nc6c(C(=O)O)cccc6nc45)c3nc12 | > 10 µM | > 10 µM | > 10 µM | > 10 µM | > 10 µM | > 10 µM | 35 µM | –
C[C@@H](O)c1cccc2nc3c(C(=O)O[C@H](C)c4cccc5nc6c(C(=O)O)cccc6nc45)cccc3nc12 | 0.0077 µM | 0.014 µM | 0.01 µM | 0.01 µM | 0.01 µM | 0.01 µM | 0.3 µM | Toxic
C[C@@H](OC(=O)c1ccccc1N)c1cccc2nc3c(C(=O)O)cccc3nc12 | > 10 µM | > 10 µM | > 10 µM | > 10 µM | > 10 µM | > 10 µM | – | –
C[C@@H](c1cc(C(=O)O)c2nc3cccc([C@@H](C)O)c3nc2c1)c1cccc2nc3c(C(=O)O)cccc3nc12 | > 10 µM | > 10 µM | > 10 µM | > 10 µM | > 10 µM | > 10 µM | – | –
C[C@H](c1cc([C@@H](C)O)c2nc3cccc(C(=O)O)c3nc2c1)c1cccc2nc3c(C(=O)O)cccc3nc12 | > 10 µM | > 10 µM | > 10 µM | > 10 µM | > 10 µM | > 10 µM | – | –
COc1cccc2c1C(=O)c1c(O)c3c(c(O)c1C2=O)C[C@@](O)(C(=O)CO)C[C@@H]3O[C@H]1C[C@H](N)[C@H](O)[C@H](C)O1 [DOXORUBICIN HYDROCHLORIDE] | 0.15 µM | 0.17 µM | 0.15 µM | – | 0.17 µM | 0.16 µM | – | –

Reference: ChEMBL document CHEMBL5143633, “Isolation, Structure Determination, and Semisynthesis of Diphenazine Compounds from a Deep-Sea-Derived Strain of the Fungus Cystobasidium laryngis and Their Biological Activities” (J Nat Prod, 2022)
